Here are results for seven molecules from ChEMBL document CHEMBL1151973, “Rhazinilam and quebrachamine derivatives from Yunnan Kopsia arborea” (J Nat Prod, 2009).

The subject of one experiment is HT-29. Description: Cytotoxicity against human HT-29 cells after 96 hrs by microplate reader assay. To be noted: HT-29, 96 h. The format is functional, cell-based.
A further experiment relates to A549. Description: Cytotoxicity against human A549 cells after 96 hrs by microplate reader assay. In kind it is functional, cell-based. To be noted: A549, 96 h.

SMILES strings stand for the structures. pIC50: −log10 of the molar value.

As for `CC[C@@]12CCCN(CCc3c([nH]c4ccccc34)CC1)C2`, the pIC50 (as a rule, the IC50 on a negative log10 scale, so that one unit is a factor of ten) in the experiment with HT-29 was 4.52; with A549 it was < 4.52.
For `CC[C@]12CCCn3c(COC)cc(c31)-c1ccccc1NC(=O)CC2`, the pIC50 was 5.33 in the experiment on HT-29 and 5.27 in the experiment on A549.
For `CC[C@]12CCCn3c(CO)cc(c31)-c1ccccc1NC(=O)CC2`, the values for the pIC50 with HT-29 and in the experiment with A549 were 5.05 and 5.09, respectively.
As to `CCOCc1cc2c3n1CCC[C@]3(CC)CCC(=O)Nc1ccccc1-2`, the pIC50 was 5.19 in the experiment with HT-29 and 5.13 in the experiment with A549.
Taken in the same sequence, the figures for `CC(=O)O[C@@]12CO[C@@H]1C[C@H](O)[C@@]1(C)C(=O)[C@H](O)C3=C(C)[C@@H](OC(=O)[C@H](O)[C@@H](NC(=O)OC(C)(C)C)c4ccccc4)C[C@@](O)([C@@H](OC(=O)c4ccccc4)[C@H]21)C3(C)C` [DOCETAXEL] were 9.48 and 9.31.
As to `CC[C@@]12CCCN(CCc3c(n(COC)c4ccccc34)CC1)C2` [KOPSIYUNNANINE D], the pIC50 was 4.52 in the experiment on HT-29 and < 4.52 in the experiment with A549.
As for `CC[C@]12CCCn3ccc(c31)-c1ccccc1NC(=O)CC2` [RHAZINILAM], the pIC50 in the experiment with HT-29 and with A549 was 6.46 throughout.
